# Data as given in patent US20140127157A1, “ANTIVIRAL ACTIVITY OF TYROSINE KINASE INHIBITORS AGAINST HEPATITUS C VIRUS” (priority 2012, published 2014).
# Where two headings read alike, the source gives them in different places.
# Tests used:
# in vitro = conditions: human
# Source text: (§1) The infectious cell culture system for HCV (HCVcc) is based on a unique full length strain of genotype 2a derived from a patient with fulminant hepatitis (JFH-1). HCVcc allows the complete virus life cycle to be studied in cell culture. A chimeric strain of JFH-1, termed Jc1JFH, is capable of more robust growth in tissue culture and can be engineered to encode a reporter gene. The activity of compounds such as nilotinib against HCVcc can be investigated using a Jc1JFH reporter virus encoding luciferase (Table 1). Naïve Huh-7.5 cells are treated with serially diluted compounds in DMSO for 2 h prior to infection with HCVcc. […] Both EC50 and CC50 values are normalized to cells treated with DMSO alone.
# HCVcc [1] = test: microbe, parasite or virus in culture; conditions: for EC50: Hepatitis C virus
# Source text: as §1
# HCV entry = assay type: cell-based, Hepatitis C virus (HCV); conditions: binding 1.5 h at 4° C., shift to 37° C., compound added at 20 min intervals up to 2 h; luciferase after 48 h
# Protocol: The effect of agents added during entry of HCV into cells-. HCV kinetic entry assay in the presence of compounds.
# In this assay, infection is synchronized by incubation of cells and virus together for 1.5 h at 4° C. to allow binding, but not subsequent entry steps. After synchronization, unbound virus is removed by washing, and cells are shifted to 37° C. to initiate post-binding events. Compounds are added either immediately prior to (time zero), or at 20 min intervals post-temperature shift for up to 2 h. Compounds are removed at 4 h post-addition and luciferase activity is measured after 48 h of infection. Controls are included, which are known to block various steps of the HCV entry process: heparin sulfate (virus binding), anti-CD81 antibody (early post-virus binding), concanamycin A (ConA; late post-virus binding), bafilomycin (Baf; late post-virus binding), gefitinib (Gef; late post-virus binding). Percent inhibition is determined relative to treatment with compounds during synchronized virus binding at 4° C. Representative data of percent inhibition versus time of addition (FIG. 2) is used to estimate half-maximal times (t1/2) to inhibit HCV entry.
# HCVrep = test: HCV replicon (HCVrep) luciferase assay, JFH-1-based replicon cell line; set-up: species or system Hepatitis C virus (HCV)
# Source text: (§2) HCVrep comprises a stable cell line harboring a sub-genomic replicon encoding a selectable marker (e.g., neomycin phosphotransferase), a reporter gene (e.g., luciferase) and the minimal HCV replicase proteins, NS3 to NS5B. Since the subgenomic replicon is non-infectious, the HCVrep system is used to study viral RNA replication independently of other stages of the life cycle, including virus entry/assembly/release. […] To determine the effects of compounds such as nilotinib on HCV RNA replication, a stable JFH-1-based replicon cell line encoding luciferase was established.
# [2] = Cytotoxicity in HCVrep cell line
# Source text: as §1, §2
# HCVcc [3] = test: Time of addition experiment with HCVcc (FIG. 1); assay type: cell-based, Hepatitis C virus (HCV); conditions: treatment 1 (compound during first 4 h of infection) vs treatment 2 (added 4 h post-infection); luciferase at 72 h
# Protocol: FIG. 1. The effect of agents added before or after entry of HCV into cells. The presence of compound during both binding and post-binding are indicated by black bars; white bars indicate compounds present only at post-binding. DMSO, dimethyl sulfoxide; 5Ainh, HCV NS5A inhibitor (50×EC50); nilotinib (50×EC50); α-CD81, anti-CD81 antibody (1 μg/mL); α-IgG, iso-type control antibody (1 μg/mL).
# To further explore the MOA of compounds such as nilotinib, a time of addition experiment is performed to determine whether the compound acted at an early (i.e., entry) or late (i.e., assembly/release) stage of the virus life cycle. Naive Huh7.5 cells are infected for 4 h with HCVcc in either the presence (treatment 1) or absence (treatment 2) of compound. At 4 h post-infection, compound is then added to the treatment 2 cells. At 72 h post infection, luciferase activity is determined. An inhibitor of viral entry (antibody targeting CD81) and an HCV replication inhibitor (5Ainh) are used as comparators.
# [4] = Table 2, ratio of cytotoxicity to antiviral potency
Compound,CC50 (in vitro) [µM],EC50 (HCVcc [1]; Huh7.5) [µM],further results
"COc1cc2ncnc(Nc3ccc(F)c(Cl)c3)c2cc1OCCCN1CCOCC1 [Gefitinib, gefitinib]",10.6,,
"Cc1ccc(NC(=O)c2ccc(CN3CCN(C)CC3)cc2)cc1Nc1nc(-c2cccnc2)cs1 [Masitinib, masitinib]",6.27,0.77,CC50/EC50 (HCVcc [1]; [4]): 14.58
"Cc1cn(-c2cc(NC(=O)c3ccc(C)c(Nc4nccc(-c5cnccn5)n4)c3)cc(C(F)(F)F)c2)cn1 [Rodotinib, radotinib]",> 2.5,0.04,
"C#Cc1cccc(Nc2ncnc3cc(OCCOC)c(OCCOC)cc23)c1 [Erlotinib, erlotinib]",> 25,0.47,
"Cc1nc(Nc2ncc(C(=O)Nc3c(C)cccc3Cl)s2)cc(N2CCN(CCO)CC2)n1 [Dasatinib, dasatinib]",18.7,1.48,CC50/EC50 (HCVcc [1]): 12.65
"CNC(=O)c1cc(Oc2ccc(NC(=O)Nc3ccc(Cl)c(C(F)(F)F)c3)c(F)c2)ccn1 [Regorafenib, regorafenib]",> 2.5,0.33,
heparin sulfate,,,inhibition kinetics of HCV entry versus time of addition (t1/2) (HCV entry): effectively blocks infection only when present during virus binding
"Cc1ccc(C(=O)Nc2ccc(CN3CCN(C)CC3)c(C(F)(F)F)c2)cc1C#Cc1cnc2cccnn12 [Ponatinib, ponatinib]",,0.05,
"CCN(CC)CCNC(=O)c1c(C)[nH]c(/C=C2\C(=O)Nc3ccc(F)cc32)c1C [Sunitinib, sunitinib]",3.54,0.94,CC50/EC50 (HCVcc [1]; [4]): 3.77
"Cc1ccc(NC(=O)c2ccc(CN3CCN(C)CC3)cc2)cc1Nc1nccc(-c2cccnc2)n1 [Imatinib, imatinib]",,,activity against the replicon (HCVrep; at the concentrations tested): did not show activity at the concentrations tested
"CNC(=O)c1cc(Oc2ccc(NC(=O)Nc3ccc(Cl)c(C(F)(F)F)c3)cc2)ccn1 [Sorafenib, sorafenib]",5.75,0.47,CC50/EC50 (HCVcc [1]; [4]): 12.23
"Cc1cn(-c2cc(NC(=O)c3ccc(C)c(Nc4nccc(-c5cccnc5)n4)c3)cc(C(F)(F)F)c2)cn1 [Nilotinib, nilotinib]",8.77,0.04,"CC50/EC50 (HCVcc [1]): 219.25; EC50 (HCVcc [1]; Huh7.5, read-out: HCVcc (EC50, μM)): 0.04 µM; CC50 (in vitro; HCVcc (CC50, μM), uninfected compound-treated cells, CellTiter Glo): 8.8 µM; EC50 (HCVrep; Hepatitis C virus, JFH-1-based replicon cell line, 72 h treatment): 4200 nM; CC50 at 72 h [2]: 8200 nM; potency when added during versus after HCV entry (HCVcc [3]): significantly more potent when added during the first 4 h of infection"
